Source: article PMC9572513, “Novel Unsymmetric 3,5-Bis(benzylidene)-4-piperidones That Display Tumor-Selective Toxicity” (Molecules, 2022)
Structures can show the parent of a compound that is named as a salt. Where two headings read alike, the source gives them in different places.

Tests used:
[1] = tested on: CEM cells; test: Differential DNA staining (DNS) cytotoxicity assay, CEM cells; assay type: cell-based; details: Homo sapiens, CCRF-CEM
Description: (§1) The method used for generating the data of human acute lymphocytic leukemia (CEM) and human acute promyelocytic leukemia (HL-60) cells in Table 4 has been described previously. In brief, the cells were cultured in media supplemented with 10% FBS and antibiotics. […] The CC50 values of the compounds listed in Table 4 were obtained by linear interpolation equations [28, 29].

[2] = MTT cytotoxicity against human periodontal ligament fibroblast (HPLF); assay type: cell-based; details: human, human periodontal ligament fibroblasts (HPLF), non-malignant oral cells
Description: (§2) The method for evaluating 2a–f and 3a–e against human oral squamous cell carcinoma (OSCC) cell lines (Ca9-22, HSC-2, HSC-3, HSC-4) and human non-malignant oral cells [human gingival fibroblast (HGF), human periodontal ligament fibroblast (HPLF), and human pulp cell (HPC)] have been reported previously, except the length of time of this bioassay was extended from 24 h to 48 h. In brief, different quantities of the compounds were incubated with the cells in Dulbecco’s modified eagle medium (DMEM), which was supplemented with 10% FBS and antibiotics. The cell viability was determined by the 3-(4,5-dimethylthiazol-2-yl)-2,5-diphenyl-2H-tetrazolium bromide (MTT) method as summarized previously (Figure 4).

[3] = tested on: HSC-4 squamous cell carcinoma cells; test: MTT cytotoxicity against HSC-4 squamous cell carcinoma; assay type: cell-based, human; details: for CC50: Homo sapiens, read-out: HSC-4 CC50; for HSC-4 SI: average CC50 HGF/HPLF/HPC divided by CC50 HSC-4
Description: as §2

[4] = MTT cytotoxicity against human gingival fibroblast (HGF); assay type: cell-based; details: human, human gingival fibroblasts (HGF), non-malignant oral cells
Description: as §2

[5] = tested on: HCT116 and HT29 colon cancer cells; test: Average over HCT116 and HT29 colon cancer cells; assay type: cell-based, human; details: for IC50: Homo sapiens, average of HCT116 and HT29, unit printed only for the single cell-line columns; for Average SI: average of SI for HCT116 and HT29; for PSE (potency-selectivity expression): reciprocal of average IC50 x average SI x 100, colon cells
Description: (§3) The culture medium was supplemented with 10% heat-inactivated fetal bovine serum (FBS) and 1% penicillin–streptomycin antibiotics. The time of the bioassays was 48 h. The determinations were undertaken in triplicate on three different occasions.

[6] = tested on: HT29 colon cancer cells; test: Cytotoxicity against HT29 colon cancer cells; assay type: cell-based, human; details: for IC50: 48 h; for HT29 SI (selectivity index): IC50 CRL1790 / IC50 HT29
Description: as §3

[7] = tested on: HL-60 cells; test: Differential DNA staining (DNS) cytotoxicity assay, HL-60 cells; assay type: cell-based; details: Homo sapiens
Description: as §1

[8] = tested on: Ca9-22 squamous cell carcinoma cells; test: MTT cytotoxicity against Ca9-22 squamous cell carcinoma; assay type: cell-based, human; details: for CC50: Homo sapiens, read-out: Ca9-22 CC50; for Ca9-22 SI: average CC50 HGF/HPLF/HPC divided by CC50 Ca9-22
Description: as §2

[9] = tested on: HCT116 colon cancer cells; test: Cytotoxicity against HCT116 colon cancer cells; assay type: cell-based, human; details: for IC50: Homo sapiens, HCT-116, 48 h, 48 h; for HCT116 SI (selectivity index): IC50 CRL1790 / IC50 HCT116
Description: as §3

[10] = tested on: Ca9-22, HSC-2, HSC-3, and HSC-4 squamous cell carcinoma cell lines; test: Average over Ca9-22, HSC-2, HSC-3 and HSC-4 OSCC cell lines; assay type: cell-based, human; details: for CC50: read-out: Average CC50; for Average SI: average of SI for four OSCC cell lines
Description: as §2

[11] = Average over HGF, HPLF and HPC non-malignant oral cells; assay type: cell-based, human; details: human, HPLF and HPC non-malignant oral cells (average), average of HGF
Description: as §2

[12] = tested on: HSC-3 squamous cell carcinoma cells; test: MTT cytotoxicity against HSC-3 squamous cell carcinoma; assay type: cell-based, human; details: for CC50: Homo sapiens, read-out: HSC-3 CC50; for HSC-3 SI: average CC50 HGF/HPLF/HPC divided by CC50 HSC-3
Description: as §2

[13] = tested on: HSC-2 squamous cell carcinoma cells; test: MTT cytotoxicity against HSC-2 squamous cell carcinoma; assay type: cell-based, human; details: for CC50: Homo sapiens, read-out: HSC-2 CC50; for HSC-2 SI: average CC50 HGF/HPLF/HPC divided by CC50 HSC-2
Description: as §2

[14] = MTT cytotoxicity against human pulp cell (HPC); assay type: cell-based; details: human, human pulp cells (HPC), non-malignant oral cells
Description: as §2

[15] = tested on: CRL1790 non-malignant colon cells; test: Cytotoxicity against CRL1790 non-malignant colon cells; assay type: cell-based; details: Homo sapiens, 48 h
Description: as §3

[16] = Homo sapiens, average of four OSCC cell lines

| Structure (SMILES) | IC50 [5] [µM] | CC50 at 48 h [2] [µM] | CC50 ([3]; HSC-4, 48 h, MTT) [µM] | HSC-4 SI [3] | CC50 at 48 h [4] [µM] | Average SI [5] | PSE (potency-selectivity expression) [5] | IC50 ([6]; Homo sapiens, HT-29, 48 h) [µM] | HT29 SI (selectivity index) [6] | CC50 ([8]; Ca9-22, 48 h, MTT) [µM] | Ca9-22 SI [8] | CC50 [10, 16] [µM] | Average SI [10] | CC50 at 48 h [11] [µM] | CC50 ([12]; HSC-3, 48 h, MTT) [µM] | HSC-3 SI [12] | CC50 ([13]; HSC-2, 48 h, MTT) [µM] | HSC-2 SI [13] | CC50 at 48 h [14] [µM] | IC50 [15] [µM] | other results |
| --- | --- | --- | --- | --- | --- | --- | --- | --- | --- | --- | --- | --- | --- | --- | --- | --- | --- | --- | --- | --- | --- |
| COc1ccc(/C=C2\CNC/C(=C\c3ccc(O)c(CN4CCCC4)c3)C2=O)cc1OC [Compound 2c, 3-[3-(1-Pyrrolidinylmethyl)-4-hydroxybenzylidene]-5-(3,4-dimethoxybenzylidene)-4-piperidone dihydrochloride] | 2.51 | 48.9 | 14.1 | 3.80 | 68.6 | 12.2 | 486 | 1.57 ± 0.54 | 16.8 | 8.2 | 6.54 | 12 | 4.69 | 53.6 | 11.7 | 4.58 | 14 | 3.83 | 43.3 | 26.4 ± 0.28 | CC50 ([1]; 24 h, read-out: CC50 CEM Cells 24 h): > 10 µM; CC50 ([1]; 48 h, read-out: CC50 CEM Cells 48 h): 7.92 ± 0.98 µM; CC50 ([7]; HL-60, 24 h, read-out: CC50 HL-60 Cells 24 h): > 10 µM; CC50 ([7]; HL-60, 48 h, read-out: CC50 HL-60 Cells 48 h): > 10 µM; IC50 [9]: 3.44 ± 0.42 µM; HCT116 SI (selectivity index) [9]: 7.67 |
| COc1ccc(/C=C2\CNC/C(=C\c3ccc(O)c(CN4CCCCC4)c3)C2=O)cc1OC [Compound 2d, 3-[3-(1-Piperidinylmethyl)-4-hydroxybenzylidene]-5-(3,4-dimethoxybenzylidene)-4-piperidone dihydrochloride] | 0.5 | 2.7 | 0.75 | – | 7 | 47.9 | 9580 | < 1 | 43.5 | 0.42 | <8.98 | < 1 | 7.47 | < 3.77 | 0.39 | <9.67 | 0.61 | <6.18 | < 1.6 | 23.5 ± 0.26 | IC50 [6]: 0.54 ± 0.17 µM; CC50 ([10]; average of four OSCC cell lines): 0.54 µM; PSE (potency-selectivity expression) ([10]; reciprocal of average CC50 (OSCC) x average SI x 100): > 1000 |
| COc1ccc(/C=C2\CNC/C(=C\c3ccc(O)c(CN4CCOCC4)c3)C2=O)cc1OC [Compound 2e, 3-[3-(4-Morpholinomethyl)-4-hydroxybenzylidene]-5-(3,4-dimethoxybenzylidene)-4-piperidone dihydrochloride] | 3.56 | > 200 | – | – | > 200 | 7.72 | 217 | 3.75 ± 0.78 | 7.31 | 41.8 | >4.79 | 69.3 | 3.12 | > 200 | 73.2 | >2.73 | 88.5 | >2.26 | > 200 | 27.4 ± 0.42 | IC50 [9]: 3.37 ± 0.68 µM; HCT116 SI (selectivity index) [9]: 8.13 |
| O=c1[nH]cc(F)c(=O)[nH]1 [Compound 5-FU, 5-fluorouracil, reference compound] | 8.97 | > 1000 | 7.8 | >128 | > 1000 | 3.10 | 34.6 | 14.4 ± 0.65 | 1.22 | 141 | >7.09 | > 240 | >35.0 | > 1000 | 450 | >2.22 | 359 | >2.79 | > 1000 | 17.6 ± 0.82 | IC50 [9]: 3.54 ± 0.72 µM; HCT116 SI (selectivity index) [9]: 4.97 |
| COc1cccc2c1C(=O)c1c(O)c3c(c(O)c1C2=O)C[C@@](O)(C(=O)CO)C[C@@H]3O[C@H]1C[C@H](N)[C@H](O)[C@H](C)O1 [DXR, doxorubicin, reference compound] | – | > 10 | 0.14 | >71.4 | > 10 | – | – | – | – | 0.33 | >30.3 | 0.23 | >48.4 | > 10 | 0.24 | >41.7 | 0.2 | >50.0 | > 10 | – | – |
| N[C@@H](Cc1ccc(N(CCCl)CCCl)cc1)C(=O)O [MPN, melphalan, reference compound] | – | > 200 | – | >19.2 | > 200 | – | – | – | – | – | >4.68 | – | >11.3 | > 200 | – | >9.62 | – | >11.8 | > 200 | – | CC50 ([3]; HSC-4, 48 h): 10.4 µM; CC50 ([8]; Ca9-22, 48 h): 42.7 µM; CC50 ([10]; Homo sapiens): 22.7 µM; CC50 ([12]; HSC-3, 48 h): 20.8 µM; CC50 ([13]; HSC-2, 48 h): 17 µM |

Further lines, with some results ahead:

| IC50 [5] [µM] | Structure (SMILES) | CC50 at 48 h [2] [µM] | CC50 ([3]; HSC-4, 48 h, MTT) [µM] | HSC-4 SI [3] | CC50 at 48 h [4] [µM] | Average SI [5] | PSE (potency-selectivity expression) [5] | IC50 ([6]; Homo sapiens, HT-29, 48 h) [µM] | HT29 SI (selectivity index) [6] | CC50 ([8]; Ca9-22, 48 h, MTT) [µM] | Ca9-22 SI [8] | CC50 [10, 16] [µM] | Average SI [10] | CC50 at 48 h [11] [µM] | CC50 ([12]; HSC-3, 48 h, MTT) [µM] | HSC-3 SI [12] | CC50 ([13]; HSC-2, 48 h, MTT) [µM] | HSC-2 SI [13] | CC50 at 48 h [14] [µM] | IC50 [15] [µM] | other results |
| --- | --- | --- | --- | --- | --- | --- | --- | --- | --- | --- | --- | --- | --- | --- | --- | --- | --- | --- | --- | --- | --- |
| 0.9 | COc1ccc(/C=C2\CNC/C(=C\c3ccc(O)c(CN4CCN(C)CC4)c3)C2=O)cc1 [Compound 3c] | 4.9 | 1.18 | 4.66 | 8.8 | 15.1 | 1678 | 0.76 ± 0.26 | 17.4 | 0.66 | 8.33 | 1 | 5.81 | 5.5 | 1.05 | 5.24 | 1.1 | 5.00 | 2.8 | 13.2 ± 0.36 | IC50 [9]: 1.04 ± 0.48 µM; HCT116 SI (selectivity index) [9]: 12.7 |
| 2.31 | Cc1ccc(/C=C2\CNC/C(=C\c3ccc(O)c(CN4CCN(C)CC4)c3)C2=O)cc1 [Compound 3d] | 10.1 | 2.29 | 4.45 | 14.6 | 18.8 | 814 | 0.71 ± 0.29 | 31.8 | 1.3 | 7.85 | 1.93 | 5.57 | 10.2 | 1.91 | 5.34 | 2.2 | 4.64 | 6 | 22.6 ± 0.59 | IC50 [9]: 3.91 ± 1.69 µM; HCT116 SI (selectivity index) [9]: 5.78 |
